Assay results from ChEMBL document CHEMBL1201862, “PubChem BioAssay data set” (2004).
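The compound was tested at five concentrations on cells cultured in 96-well plates, with a 48-hour exposure period. The concentration for 50% growth inhibition is given as GI50.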 Activity calls are given as the source filed them. Cut-off read from the data, not from the text of the source: active = GI50 up to about 1.1 µM and inactive = higher.

Legend:
Assay in all cases: NCI-60 cell line screen, 48 h
SNB-19 = system: SNB-19
CAKI-1 = system: CAKI-1
SW-620 = system: SW-620
HL-60 = system: HL-60
RPMI-8226 = system: RPMI-8226
A498 = system: A498
HCT-15 = system: HCT-15
UO-31 = system: UO-31
LOX IMVI = system: LOX IMVI
DLD-1 = system: DLD-1
TK-10 = system: TK-10
K562 = system: K562
KM-20L2 = system: KM-20L2
A549 = system: A549
U-251 = system: U-251
SK-MEL-5 = system: SK-MEL-5
MOLT-4 = system: MOLT-4
OVCAR-8 = system: OVCAR-8
OVCAR-4 = system: OVCAR-4
OVCAR-5 = system: OVCAR-5
DMS-114 = system: DMS-114
IGROV-1 = system: IGROV-1
KM12 = system: KM12
RXF 393 = system: RXF 393
NCI-H23 = system: NCI-H23
LXFL 529 = system: LXFL 529
ACHN = system: ACHN
UACC-62 = system: UACC-62
NCI-H460 = system: NCI-H460
HT-29 = system: HT-29
HOP-92 = system: HOP-92
Malme-3M = system: Malme-3M
M14 = system: M14
HOP-18 = system: HOP-18
HCC 2998 = system: HCC 2998
COLO 205 = system: COLO 205
SK-OV-3 = system: SK-OV-3
NCI-H522 = system: NCI-H522
SF-295 = system: SF-295
DMS-273 = system: DMS-273
SK-MEL-28 = system: SK-MEL-28
SR = system: SR
HOP-62 = system: HOP-62
OVCAR-3 = system: OVCAR-3
M19-MEL = system: M19-MEL
SNB-75 = system: SNB-75
HCT-116 = system: HCT-116
CCRF-CEM = system: CCRF-CEM
SF-539 = system: SF-539
SF-268 = system: SF-268
786-0 = system: 786-0
SK-MEL-2 = system: SK-MEL-2
SN12C = system: SN12C
UACC-257 = system: UACC-257
SNB-78 = system: SNB-78
NCI-H226 = system: NCI-H226
EKVX = system: EKVX

NC1=NS(=O)(=O)Nc2nc(-c3ccc(Cl)cc3)[nH]c21
GI50 (SNB-19): > 100 µM (inactive)
GI50 (CAKI-1): > 100 µM (inactive)
GI50 (SW-620): > 100 µM (inactive)
GI50 (HL-60): > 100 µM (inactive)
GI50 (RPMI-8226): > 100 µM (inactive)
GI50 (A498): > 100 µM (inactive)
GI50 (HCT-15): > 100 µM
GI50 (UO-31): > 100 µM (inactive)
GI50 (LOX IMVI): > 100 µM (inactive)
GI50 (DLD-1): > 100 µM (inactive)
GI50 (TK-10): > 100 µM (inactive)
GI50 (K562): > 100 µM (inactive)
GI50 (KM-20L2): > 100 µM (inactive)
GI50 (A549): > 100 µM (inactive)
GI50 (U-251): > 100 µM (inactive)
GI50 (SK-MEL-5): > 100 µM (inactive)
GI50 (MOLT-4): > 100 µM (inactive)
GI50 (OVCAR-8): > 100 µM (inactive)
GI50 (OVCAR-4): > 100 µM (inactive)
GI50 (OVCAR-5): > 100 µM (inactive)
GI50 (DMS-114): > 100 µM (inactive)
GI50 (IGROV-1): > 100 µM (inactive)
GI50 (KM12): > 100 µM (inactive)
GI50 (RXF 393): > 10 µM (inactive)
GI50 (NCI-H23): > 100 µM (inactive)
GI50 (LXFL 529): > 100 µM (inactive)
GI50 (ACHN): > 100 µM (inactive)
GI50 (UACC-62): > 100 µM (inactive)
GI50 (NCI-H460): > 100 µM (inactive)
GI50 (HT-29): > 100 µM (inactive)
GI50 (HOP-92): 88.1 µM (inactive)
GI50 (Malme-3M): > 100 µM (inactive)
GI50 (M14): > 100 µM (inactive)
GI50 (HOP-18): > 100 µM (inactive)
GI50 (HCC 2998): > 100 µM (inactive)
GI50 (COLO 205): > 100 µM (inactive)
GI50 (SK-OV-3): > 100 µM (inactive)
GI50 (NCI-H522): > 100 µM (inactive)
GI50 (SF-295): > 100 µM (inactive)
GI50 (DMS-273): > 100 µM (inactive)
GI50 (SK-MEL-28): > 100 µM (inactive)
GI50 (SR): > 100 µM (inactive)
GI50 (HOP-62): > 100 µM (inactive)
GI50 (OVCAR-3): > 100 µM (inactive)
GI50 (M19-MEL): > 100 µM (inactive)
GI50 (SNB-75): 62.7 µM (inactive)
GI50 (HCT-116): > 100 µM (inactive)
GI50 (CCRF-CEM): > 100 µM (inactive)
GI50 (SF-539): > 100 µM (inactive)
GI50 (SF-268): > 100 µM (inactive)
GI50 (786-0): > 100 µM (inactive)
GI50 (SK-MEL-2): > 100 µM (inactive)
GI50 (SN12C): > 100 µM (inactive)

Cc1cn(C2OC(C)(CO)C(O)C2O)c(=O)[nH]c1=O (centres undefined)
GI50 (SNB-19): > 100 µM (inactive)
GI50 (CAKI-1): > 100 µM (inactive)
GI50 (SW-620): > 100 µM (inactive)
GI50 (HL-60): > 10 µM (inactive)
GI50 (RPMI-8226): > 100 µM (inactive)
GI50 (A498): > 100 µM (inactive)
GI50 (HCT-15): > 100 µM
GI50 (UO-31): > 100 µM (inactive)
GI50 (LOX IMVI): > 100 µM (inactive)
GI50 (DLD-1): > 100 µM (inactive)
GI50 (TK-10): > 100 µM (inactive)
GI50 (K562): > 100 µM (inactive)
GI50 (A549): > 100 µM (inactive)
GI50 (U-251): > 100 µM (inactive)
GI50 (SK-MEL-5): > 100 µM (inactive)
GI50 (MOLT-4): > 100 µM (inactive)
GI50 (OVCAR-8): > 100 µM (inactive)
GI50 (OVCAR-4): > 100 µM (inactive)
GI50 (OVCAR-5): > 100 µM (inactive)
GI50 (DMS-114): > 100 µM (inactive)
GI50 (IGROV-1): > 100 µM (inactive)
GI50 (KM12): > 100 µM (inactive)
GI50 (RXF 393): > 100 µM (inactive)
GI50 (NCI-H23): > 100 µM (inactive)
GI50 (LXFL 529): > 100 µM (inactive)
GI50 (ACHN): > 100 µM (inactive)
GI50 (UACC-62): > 100 µM (inactive)
GI50 (NCI-H460): > 100 µM (inactive)
GI50 (HT-29): > 100 µM (inactive)
GI50 (HOP-92): > 100 µM (inactive)
GI50 (Malme-3M): > 100 µM (inactive)
GI50 (M14): > 100 µM (inactive)
GI50 (HOP-18): > 100 µM (inactive)
GI50 (HCC 2998): > 100 µM (inactive)
GI50 (COLO 205): > 100 µM (inactive)
GI50 (SK-OV-3): > 100 µM (inactive)
GI50 (NCI-H522): > 100 µM (inactive)
GI50 (SF-295): > 100 µM (inactive)
GI50 (DMS-273): > 100 µM (inactive)
GI50 (SK-MEL-28): > 100 µM (inactive)
GI50 (SR): > 100 µM (inactive)
GI50 (HOP-62): > 100 µM (inactive)
GI50 (OVCAR-3): > 100 µM (inactive)
GI50 (M19-MEL): > 100 µM (inactive)
GI50 (SNB-75): > 100 µM (inactive)
GI50 (HCT-116): > 100 µM (inactive)
GI50 (CCRF-CEM): > 100 µM (inactive)
GI50 (SF-539): > 100 µM (inactive)
GI50 (SF-268): > 100 µM (inactive)
GI50 (786-0): > 100 µM (inactive)
GI50 (SK-MEL-2): > 100 µM (inactive)
GI50 (SN12C): > 100 µM (inactive)

CC1C[C@H](C)CC(C(O)CC2CC(=O)N(Cc3ccccc3)C(=O)C2)C1O (some centres undefined)
GI50 (SNB-19): > 100 µM (inactive)
GI50 (CAKI-1): > 100 µM (inactive)
GI50 (SW-620): > 100 µM (inactive)
GI50 (HL-60): > 100 µM (inactive)
GI50 (RPMI-8226): > 100 µM (inactive)
GI50 (A498): > 100 µM (inactive)
GI50 (UACC-257): > 100 µM (inactive)
GI50 (UO-31): > 100 µM (inactive)
GI50 (LOX IMVI): > 100 µM (inactive)
GI50 (DLD-1): > 100 µM (inactive)
GI50 (SNB-78): > 100 µM (inactive)
GI50 (TK-10): > 100 µM (inactive)
GI50 (K562): > 100 µM (inactive)
GI50 (KM-20L2): > 100 µM (inactive)
GI50 (A549): > 100 µM (inactive)
GI50 (U-251): > 100 µM (inactive)
GI50 (MOLT-4): > 100 µM (inactive)
GI50 (OVCAR-8): > 100 µM (inactive)
GI50 (OVCAR-4): > 100 µM (inactive)
GI50 (NCI-H226): > 100 µM (inactive)
GI50 (OVCAR-5): > 100 µM (inactive)
GI50 (DMS-114): > 100 µM (inactive)
GI50 (IGROV-1): > 100 µM (inactive)
GI50 (KM12): 48.9 µM (inactive)
GI50 (RXF 393): > 100 µM (inactive)
GI50 (NCI-H23): 2.65 µM (inactive)
GI50 (LXFL 529): > 100 µM (inactive)
GI50 (ACHN): > 100 µM (inactive)
GI50 (UACC-62): > 100 µM (inactive)
GI50 (NCI-H460): > 100 µM (inactive)
GI50 (HT-29): > 100 µM (inactive)
GI50 (HOP-92): > 100 µM (inactive)
GI50 (Malme-3M): > 100 µM (inactive)
GI50 (M14): > 100 µM (inactive)
GI50 (HOP-18): > 100 µM (inactive)
GI50 (HCC 2998): > 100 µM (inactive)
GI50 (COLO 205): > 100 µM (inactive)
GI50 (EKVX): > 100 µM (inactive)
GI50 (SK-OV-3): > 100 µM (inactive)
GI50 (NCI-H522): > 100 µM (inactive)
GI50 (SF-295): > 100 µM (inactive)
GI50 (DMS-273): > 100 µM (inactive)
GI50 (SK-MEL-28): > 100 µM (inactive)
GI50 (SR): > 100 µM (inactive)
GI50 (HOP-62): > 100 µM (inactive)
GI50 (OVCAR-3): > 100 µM (inactive)
GI50 (M19-MEL): > 100 µM (inactive)
GI50 (SNB-75): > 100 µM (inactive)
GI50 (HCT-116): > 100 µM (inactive)
GI50 (CCRF-CEM): > 100 µM (inactive)
GI50 (SF-539): > 100 µM (inactive)
GI50 (SF-268): > 100 µM (inactive)
GI50 (786-0): > 100 µM (inactive)
GI50 (SN12C): > 100 µM (inactive)
